Measured values published in patent publication US12497396B2, “Nitrogen-containing heterocyclic derivatives, method therefor and application therefor as inhibitors of KRAS G12C for the treatment of cancers” (SHANGHAI HANSOH BIOMEDICAL CO., LTD., priority 2019, dated 2025).

Experiments:
[1] = biological target: T1, CYP2C9 (Homo sapiens, UniProt P11712); assay: CYP enzyme single point inhibition, human liver microsomes, 2C9; type: in vitro ADME; conditions: single point method
T1 construct: from tissue; host or cells: human liver microsomes
T1 sequence (P11712 whole entry): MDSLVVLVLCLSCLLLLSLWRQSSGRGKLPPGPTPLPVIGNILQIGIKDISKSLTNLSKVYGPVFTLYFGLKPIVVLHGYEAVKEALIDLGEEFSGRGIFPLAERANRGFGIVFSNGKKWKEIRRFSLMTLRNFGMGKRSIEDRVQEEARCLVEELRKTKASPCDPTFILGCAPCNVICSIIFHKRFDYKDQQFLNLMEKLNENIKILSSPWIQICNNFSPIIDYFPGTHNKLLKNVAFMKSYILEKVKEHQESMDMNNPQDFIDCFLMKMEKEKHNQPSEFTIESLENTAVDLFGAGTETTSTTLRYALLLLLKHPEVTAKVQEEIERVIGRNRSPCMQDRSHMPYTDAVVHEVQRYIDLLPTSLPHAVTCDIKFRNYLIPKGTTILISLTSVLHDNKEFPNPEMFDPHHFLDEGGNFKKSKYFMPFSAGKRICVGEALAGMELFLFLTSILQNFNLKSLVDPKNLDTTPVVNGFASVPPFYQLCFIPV
Description: Using human liver microsomal incubation system, the inhibition of CYP450 enzyme subtypes by compounds was rapidly predicted by single point method.
2.5 mM NADPH: 100 mM phosphate buffer was added to 4.165 mg of NADPH (reduced nicotinamide adenine dinucleotide phosphate) to 2 mL. 0.25 mg/mL microsome: 4 mL of 100 mM phosphate buffer was added to 50 μL of 20 mg/mL microsome and mixed well.
The embodiment compound to be tested was weighed and diluted to 10 mM with DMSO and then diluted to 100 μM with 100 mM phosphate buffer.
• 1. In a 96-well plate, 40 μL of liver microsomes, 10 μL of substrate, 10 μL of compound to be tested were pre-incubated for 3 min. • 2. 40 μL of NADPH was added. • 3. 300 μL of acetonitrile termination solution containing internal standard was added at 20 min. • 4. Centrifugal injection.

[2] = in vivo; conditions: male, Balb/c, mouse, po, 10 mg/kg
Description: 5 g of Hydroxyethyl cellulose (HEC, CMC-Na, viscosity: 800-1200 Cps) was weighed, dissolved in 1000 mL of purified water, and 10 g of Tween 80 was added. The mixture was mixed well to form a clear solution.
The embodiment compounds were weighed and added into 4-mL glass bottles, respectively, 2.4 mL of the solution was added, and ultrasound was performed for 10 minutes to obtain a colorless clear solution with a concentration of 1 mg/mL.
Balb/C mice, males; PO, after overnight fasting, respectively, at a dose of 10 mg/kg, administered in a volume of 10 mL/kg.
Blood samples were collected before administration and 0.083 h, 0.25 h, 0.5 h, 1 h, 2 h, 4 h, 6 h and 8 h after administration, the blood was placed in EDTA-2K tube, centrifuged at 4° C. 6000 rpm for 6 min to separate plasma, and stored at −80° C.; food was consumed 4 hours after drug administration.

[3] = in vitro; type: in vitro ADME; conditions: for half-life at 0.5 μM: plasma
Description: (§1) Animal or human whole blood was collected, then the blood was put into a test tube containing anticoagulant, centrifuged at 3500 rpm for 10 min, and the upper layer of pale yellow plasma was collected. • 2), 10 μM of tested compound (m/M/V=C)
(§2) The compound was weighed, the stock solution was prepared with DMSO and the working solution was prepared with 100 mM phosphate buffer. • 3), 10 μM of positive control (1) Propantheline (Propantheline Mr=449.4 Da)
(§3) • 1) 285 μL of plasma and 15 μL of 10 μM compound (tested compound) were added in turn in a 96-well plate, and incubated at 37° C. • 2) 40 μL was taken out at 0, 15, 30, 60, 90, 120 min, respectively, and 160 μL of acetonitrile termination solution containing internal standard was added. • 3) After centrifugation (3500 rpm, 10 min), 50 μL of supernatant was taken out, and then diluted with 50 μL DDH2O and injected to LC-MS/MS.
(§4) • Instrument: Shimadzu LC-20 AD • Chromatographic column: phenomenex Gemiu® C18 (50*4.6 mm, 5 μM particle size); • mobile phase: A: acetonitrile, B: 0.1% formic acid solution […], 2.0-2.1 min: 90% A→5% A; flow rate: 0.8 mL/min; running time: 5.0 min; injection volume: 5 μL.
(§5) • Instrument: API4000 Liquid Chromatography-Mass Spectrometry, AB, USA; • the ion source was electrospray ionization source (ESI); • the temperature of dry gas (N2) was 500° C.; • electrospray voltage was 5500V; • the detection method was positive ion detection; • the scanning mode was selective response monitoring (MRM). • the scanning time was 0.1 s.

[4] = Plasma stability, dog plasma; type: in vitro ADME; conditions: for Residual rate (%) 0 min / Residual rate (%) 15 min / Residual rate (%) 30 min / Residual rate (%) 60 min / Residual rate (%) 120 min: dog plasma, 37° C.; for half-life at 0.5 μM: dog, plasma
Description: as §1, §2, §3, §4, §5

[5] = Pharmacokinetics in MiaPaca 2 tumor-bearing mice (plasma, tumor); type: in vivo; conditions: female, mouse, po, 6 mg/kg p.o.
Description: The pharmacokinetic behavior of embodiment compound 165 and AMG-510 compound, administered orally at a dose of 6 mg/kg, in mice (plasma, tumor tissue and intestine) was studied using MiaPaca 2 tumor-bearing mice as test animals.
24 MiaPaca 2 tumor-bearing mice, females. 3 for each time point (0 h, 1 h, 2 h, 4 h, 6 h, 8 h, 16 h, 24 h). Shanghai xipuer-bikai Laboratory Animal Co., Ltd, Animal Production License No. (SCXK (Shanghai) 2018-0006.
Embodiment compound 165-1 and compound AMG-510 were weighed and dissolved in the solution, the mixture was shaken well, and ultrasound was performed for 15 minutes to obtain a uniform suspension with a concentration of 0.6 mg/mL.
MiaPaca 2 tumor-bearing mice were administered at a dose of 6 mg/kg in a volume of 10 mL/kg, respectively, based on body weight p.o. after fasting (animals were not administered at point 0 h).
Before and after administration, mice were sacrificed with CO2, 0.5 mL blood was collected from the heart and placed in EDTA-2K tube, centrifuged at 4° C. […] The duodenum, ileum and colon tissues were cut with scissors, the contents were removed and cleaned twice with PBS, after absorbing water with absorbent paper, they were weighed, placed in a 2 mL centrifuge tube and stored at −80° C.

SMILES	IC50 [1]	AUC(0-inf) [2]	Cmax [2]	MRT [2]	Tmax [2]	half-life [2]	Residual rate (%) 0 min ([3]; human, 0.5 μM)	Residual rate (%) 15 min ([3]; human, 0.5 μM)	Residual rate (%) 30 min ([3]; human, 0.5 μM)	Residual rate (%) 60 min ([3]; human, 0.5 μM)	Residual rate (%) 120 min ([3]; human, 0.5 μM)	half-life at 0.5 μM ([3]; human)	half-life at 0.5 μM ([3]; mouse)	Residual rate (%) 0 min [4]	Residual rate (%) 15 min [4]	Residual rate (%) 30 min [4]	Residual rate (%) 60 min [4]	Residual rate (%) 120 min [4]	half-life at 0.5 μM [4]	other results
C=CC(=O)N1C[C@H](C)N(c2nc(=O)n(-c3c(SC)ccnc3C(C)C)c3nc(-c4c(O)cccc4F)c(F)cc23)C[C@H]1C (single isomer, unassigned) [Embodiment 114-1]	84.6 nM	1370 ng·h/mL	1820 ng/mL	0.7 h	0.25 h	0.6 h	–	–	–	–	–	–	–	–	–	–	–	–	–	–
C=CC(=O)N1C[C@H](C)N(c2nc(=O)n(-c3c(SC)ccnc3C(C)C)c3nc(-c4c(N)ccc(Cl)c4F)c(Cl)cc23)C[C@H]1C (single isomer, unassigned) [Embodiment 165-1]	58.8 nM	347 ng·h/mL	264 ng/mL	1.5 h	0.25 h	1 h	100.00%	102.34%	100.28%	90.27%	87.22%	8.35 h	16.9 h	100.00%	97.71%	96.32%	94.86%	92.49%	19.6 h	Residual rate (%) 0 min ([3]; mouse, 0.5 μM): 100.00%; Residual rate (%) 15 min ([3]; mouse, 0.5 μM): 100.58%; Residual rate (%) 30 min ([3]; mouse, 0.5 μM): 99.52%; Residual rate (%) 60 min ([3]; mouse, 0.5 μM): 99.64%; Residual rate (%) 120 min ([3]; mouse, 0.5 μM): 92.32%; Kp ([5]; exposure in tumor to exposure in plasma, read-out: Ratio (T/P)): 0.57; MRT ([5]; plasma, read-out: MRT (hr) Plasma): 0.9 h; half-life ([5]; plasma, read-out: T1/2 (hr) Plasma (converted)): 0.5 h; MRT ([5]; tumor, read-out: MRT (hr) Tumor): 1.5 h; half-life ([5]; tumor, read-out: T1/2 (hr) Tumor (converted)): 0.9 h
C=CC(=O)N1C[C@H](C)N(c2nc(=O)n(-c3c(SC)ccnc3C(C)C)c3nc(-c4c(O)cccc4F)c(Cl)cc23)C[C@H]1C (single isomer, unassigned) [Embodiment 166-1]	–	–	–	–	–	–	100.00%	99.15%	94.74%	89.14%	78.85%	5.64 h	7.75 h	100.00%	99.98%	98.79%	93.69%	86.16%	8.88 h	Residual rate (%) 0 min ([3]; mouse plasma, 37° C.): 100.00%; Residual rate (%) 15 min ([3]; mouse plasma, 37° C.): 105.42%; Residual rate (%) 30 min ([3]; mouse plasma, 37° C.): 100.02%; Residual rate (%) 60 min ([3]; mouse plasma, 37° C.): 99.12%; Residual rate (%) 120 min ([3]; mouse plasma, 37° C.): 85.55%
